Measured values: patent publication US6878697B2, “Phenylamino-pyrimidines and uses thereof” (Ariad Pharmaceuticals, Inc., priority 2001, dated 2005)

Assay: Hydroxyapatite assay (hydroxyapatite adsorption chromatography)
Type: physicochemical
Conditions: corrected retention K=(retention time-void time)/void on TSK-Gel HA 1000 HPLC column; linear gradient 10 mM to 500 mM sodium phosphate, 0.15 N NaCl, pH 6.8
Procedure: Hydroxyapatite is the principal mineral component of bone. Hydroxyapatite adsorption chromatography is used as an assay to evaluate the bone-targeting potential of both individual bone-targeting moieties (“monomers”) and of pharmaceuticals incorporating bone-targeting groups.
Method: The rentention time of a test compound is measured using a linear gradient from 10 mM sodium phosphate, 0.15 N NaCl, pH=6.8 to 500 mM sodium phosphate, 0.15 N NaCl, […] on a TSK-Gel HA 1000 high pressure liquid chromatography column (7.5 mm×75 mm). The rentention time of the compound is expressed in terms of K=(retention time-void time)/void. This K value is corrected using two reference compounds to correct from inter-column and inter-system variation to obtain a K′ value.
Reference Compounds: K′ values were determined for known bone targeted compounds, the bisphosphonate, alendronate and tetracycline.

K′ value: 3.7
Compound: NCCCC(O)(P(=O)(O)O)P(=O)(O)O [Alendronate, alendronate]
